Assay: NF-keppaB Inhibitory Activity Evaluation Test: A549/NF-κB-luc cells (available from Panomics, Cat No. LR0051) were prepared at 375,000 cells/mL in the culture medium. The 375,000 cells/mL A549/NF-κB-luc cell suspension was seeded at 80 μL each on a white 96-well plate (available from Greiner, Cat No. 655073). One hour after seeding the cells, 10 μL of 2% DMSO solution (control) and each compound solution in each concentration were added to each well of the 96-well plate. One hour after the addition of each compound solution, 10 ng/mL of the TNF-α solution (10 μL) was added to each well of the 96-well plate. Three hours after the addition of 10 ng/mL of the TNF-α solution, 100 μL of Steady-Glo reagent (available from Promega, Cat No. E2510) was added to each well of the 96-well plate. After 30 to 90 minutes of the addition of the Steady-Glo reagent, the luminescence intensity of each well was detected by EnVision multilabel counter (available from PerkinElmer).

## Cc1sc2c(c1C)C(c1ccc(Cl)cc1)=NN(Cc1cccc(F)n1)c1nnc(C)n1-2
  IC50: 33.6 nM

— ChEMBL document CHEMBL5728846, “6H-thieno[2,3-e][1,2,4]triazolo[3,4-c][1,2,4]triazepine derivative” (2021)
